These results are taken from US11572344B2, “Cyanoaryl-aniline compounds for treatment of dermal disorders” (NFlection Therapeutics, Inc., priority 2018, dated 2023).

One experiment deals with MEK1 (Homo sapiens (Human), UniProt Q02750). Nature of the experiment: MEK Inhibition Assay-2 (Z′-LYTE biochemical assay). The conditions noted are these: Z′-LYTE assay of Example 39; read-out: IC50 against MEK1. How it is done: MEK1 inhibitory activity of compounds were tested using the following procedure (protocol available at thermofisher.com/content/dam/LifeTech/migration/files/drug-discovery/pdfs.par.60256.file.dat/20130430%20ssbk %20customer %20protocol %20and %20assa y %20conditions.pdf). The Z′-LYTE biochemical assay (ThermoFisher) employs a fluorescence-based, coupled-enzyme format and is based on the differential sensitivity of phosphorylated and non-phosphorylated peptides to proteolytic cleavage.
Chain of MEK1 (Q02750 whole entry): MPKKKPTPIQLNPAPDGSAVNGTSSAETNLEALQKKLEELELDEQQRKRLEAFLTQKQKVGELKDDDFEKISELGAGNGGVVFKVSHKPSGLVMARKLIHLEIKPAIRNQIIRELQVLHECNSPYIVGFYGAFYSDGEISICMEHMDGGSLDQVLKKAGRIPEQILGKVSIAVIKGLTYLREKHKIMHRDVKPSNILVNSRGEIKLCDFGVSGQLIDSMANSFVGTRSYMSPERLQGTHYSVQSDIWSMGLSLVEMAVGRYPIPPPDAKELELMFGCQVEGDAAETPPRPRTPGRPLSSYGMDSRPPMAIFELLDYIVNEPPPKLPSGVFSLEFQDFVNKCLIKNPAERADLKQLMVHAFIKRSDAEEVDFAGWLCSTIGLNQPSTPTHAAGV
Test compounds in 100% DMSO were screened in 1% DMSO (final) in the well. For 10 point titrations, 3-fold serial dilutions are conducted from the starting concentration of 30 μM.
After the 1 hour incubation, 5 μL of a 1:1024 dilution of Development Reagent A (available from Invitrogen, catalog no. PV3295) was added.
ATP solutions were diluted to a 4× working concentration in Kinase Buffer (50 mM HEPES pH 7.5, 0.01% BRIJ-35, 10 mM MgCl2, 1 mM EGTA). ATP Km apparent was previously determined using a Z′-LYTE assay. The Development Reagent was diluted in Development Buffer (available from Invitrogen, catalog no. P3127).
Assay Protocol: 2.5 μL of 4× test compound or 100 nL of 100× Test Compound plus 2.4 μL Kinase Buffer, 5 μL of the 2× Peptide/Kinase Mixture, 2.5 μL of 4×ATP Solution were added to the plates and placed on a shake plate for 30-seconds. The kinase reaction was allowed to proceed for 60-minute at room temperature, before 5 μL of Development Reagent Solution was added, and the mixture agitated for 30-seconds on a shake plate. The mixture was incubated for 60-minute at room temperature. Fluorescence was measured using a plate reader and the data were analyzed.
This control yielded 100% cleaved peptide in the Development Reaction. The 100% Phosphorylation Control, which consisted of a synthetically phosphorylated peptide of the same sequence as the peptide substrate, was designed to allow for the calculation of percent phosphorylation. This control yielded a very low percentage of cleaved peptide in the Development Reaction. The 0% Phosphorylation and 100% Phosphorylation Controls allow for the calculation of the percent phosphorylation achieved in a specific reaction well.
The minimum emission ratio in a screen was established by the 0% Inhibition Control, which contained active kinase. This control was designed to produce a 10-50% phosphorylated peptide in the Kinase Reaction. Cascade assays may produce up to 70% phosphorylated peptide.
A known inhibitor control standard curve, 10 point titration, was run for each individual kinase on the same plate as the kinase to ensure the kinase was inhibited within an expected IC50 range previously determined.
The following controls are prepared for each concentration of Test Compound assayed. […] The expected value for a non-interfering compound should be 100%. Any value outside of 90% to 110% was flagged. […] The expected value for a non-fluorescence compound should be 0%. Any value>20% was flagged.
The data in Table A was calculated. XLfit from IDBS was used. The dose response curve was curve fit to model number 205 (sigmoidal dose-response model).
Table 3 lists the MEK1 inhibition assay results of selected compounds according to the above procedure.

Another experiment relates to A375 cells. Nature of the experiment: A375 (BRAF) GI50 cell-based assay (Cell Titer-Glo). The settings on record: Homo sapiens, A-375, 72 hours, read-out: Assay 2: A375 (BRAF) GI50. How it is done: (§1) Alternatively, the following procedure can be used to measure cell-based activity. Test compounds were dissolved in DMSO in 10 mM stock. Cell Titer-Glo® 2.0 Luminescent cell viability assay reagent was purchased from Promega (Madison, Wis.). A375 and HCT116 cell lines were purchased from American Type Culture Collection (Manassas, Va.). For A375 cells, cell culture media was DMEM+10% FBS. For HCT116 cells, cell culture media was McCoy's 5A+10% FBS. All media were supplemented with 100 μg/mL of penicillin, and 100 μg/mL of streptomycin. Cultures were maintained at 37° C. in a humidified atmosphere of 5% CO2 and 95% air.
(§2) Test compounds were diluted in DMSO solution with 10-dose and 3-fold dilutions in a source plate starting at 10 mM. 25 nL of each test compound was delivered from the source plate to each well of the 384-well cell culture plates (T=Final) by Echo 550. 25 μL of culture medium containing 2000 of A375 or HCT116 cells was added to each of the wells in duplicates of the cell culture plates (T=0 and T=Final). 25 μL of Cell Titer Glo 2.0 reagent was added to each well of cell culture plate (T=0). The contents were mixed on an orbital shaker for 2 min and incubated at room temperature for 15 min to stabilize luminescent signal. Luminescence was recorded by Envision 2104 Multilabel Reader (PerkinElmer, Santa Clara, Calif.). The number of viable cells in culture was determined based on quantitation of the ATP present in each culture well. The cells in cell culture plate (T=Final) were incubated with the compounds at 37° C., 5% CO2 for 72 hours. 25 μL of Cell Titer Glo 2.0 reagent was added to each well. The contents were mixed on an orbital shaker for 2 min and incubated at room temperature for 15 min to stabilize luminescent signal. Luminescence was recorded by Envision 2104 Multilabel Reader (PerkinElmer, Santa Clara, Calif.). The number of viable cells in culture was determined based on quantitation of the ATP present in each culture well. The GI50 curves were plotted using the GraphPad Prism 4 program based on a sigmoidal dose-response equation Y=Bottom+(Top-Bottom)/(1+10^((Log EC50−X)*HillSlope)). All parameters in the equation were calculated by GraphPad Prism 4 program. […] Accordingly, GI50 is the value of 10^X, where X was calculated by the Curve Fitting Equation when Y=50 using Excel.
Assay 2 is the A375 (BRAF) GI50 (nM) cell-based assay as described in Example 41.

The next experiment concerns HCT116 cells. Nature of the experiment: HCT116 (Kras) GI50 cell-based assay (Cell Titer-Glo). The conditions noted are these: Homo sapiens, HCT-116, 72 hours, read-out: Assay 3: HCT116 (Kras) GI50. How it is done: as §1, §2
Assay 3 is the HCT116 (Kras) GI50 (nM) assay as described in Example 41.

As to `N#Cc1ccc(C(=O)NOCCO)c(Nc2ccc(I)cc2F)c1` [Compound 1.010], the IC50 on MEK1 is not above 0.15 µM. Moreover, the GI50 with A375 cells was not above 0.5 µM; with HCT116 cells, not above 0.75 µM.
`N#Cc1ccc(C(=O)NOCCO)c(Nc2ccc(I)cc2F)c1F` [Compound 1.030, 4-cyano-3-fluoro-2-((2-fluoro-4-iodophenyl)amino)-N-(2-hydroxyethoxy) benzamide]: the concentration for half-maximal inhibition (IC50) on MEK1 is not above 0.15 µM. Also, the GI50 is not above 0.5 µM with A375 cells and not above 0.75 µM in the experiment on HCT116 cells.
Take `N#Cc1ccc(C(=O)NOCC2CC2)c(Nc2ccc(I)cc2F)c1F` [Compound 1.031]: at MEK1, the half-maximal inhibitory concentration (IC50) is not above 0.15 µM. Also, the figures for the 50% growth inhibitory concentration (GI50) in the experiment with A375 cells and with HCT116 cells were not above 0.5 µM and 0.75 to 2 µM, respectively.
